Here are results for seven compounds from ChEMBL document CHEMBL1201862, “PubChem BioAssay data set” (2004).

Test systems include A498; ACHN; COLO 205; DU-145; HCC 2998; HOP-62; HT-29; Hs-578T; KM12; M14; MCF7; MDA-MB-231; MDA-N; Malme-3M; NCI-H226; NCI-H522; NCI/ADR-RES; OVCAR-5; SF-539; SN12C.
Common to all, as to assay: inhibition of tumour cell growth, NCI panel, 48 h

SMILES strings stand for the structures.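 All cell lines were grown in 96-well plates and treated with compound for 48 hours. GI50 is the concentration that inhibits growth by half.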 Active and inactive are the calls of the source. No stated cut-off is given here; in the data, active = GI50 up to about 1.1 µM and inactive = higher.

Regarding `Cc1cc2c(cc1Cl)Sc1nnc(C)n1S2(=O)=O`, the GI50 in the test on A498 is 14.8 µM (inactive); with ACHN it was 11.9 µM (inactive); in the test on COLO 205, 15.2 µM (inactive); in the test with DU-145, 22 µM (inactive); in the test with HCC 2998, 17.7 µM (inactive); with HOP-62 it was 20 µM (inactive). Moreover, the GI50 with HT-29 is 18.5 µM (inactive); in the test with Hs-578T it was 28.9 µM (inactive); in the test with KM12, 15.5 µM (inactive); in the test on M14, 14 µM (inactive); in the test with MCF7, 4.44 µM (inactive); in the test on MDA-MB-231 it was 11.7 µM (inactive). The GI50 in the test on MDA-N is 13.8 µM (inactive); with Malme-3M, 8.67 µM (inactive); in the test with NCI-H226 it was 30.2 µM (inactive); in the test with NCI-H522, 8.69 µM (inactive); in the test with NCI/ADR-RES, 27 µM (inactive); in the test on OVCAR-5 it was 29.2 µM (inactive). Besides, the GI50 in the test on SF-539 is 17.9 µM (inactive); in the test on SN12C, 14.8 µM (inactive).
On to `O=Cc1ccc2c(c1)CC1(C2)Cc2ccc(C=O)cc2C1`, for which the GI50 is 28.1 µM (inactive) in the test on A498; 24.4 µM (inactive) in the test with ACHN; 30.3 µM (inactive) with COLO 205; 35.5 µM (inactive) in the test with DU-145; 35.8 µM (inactive) in the test on HCC 2998; 14.7 µM (inactive) in the test with HOP-62. Moreover, the GI50 in the test with HT-29 was 24.5 µM (inactive); with Hs-578T it was 3.26 µM (inactive); in the test on KM12, 28.1 µM (inactive); with M14, 6.14 µM (inactive); in the test with MCF7 it was 31.8 µM (inactive); with MDA-MB-231, 12.2 µM (inactive). The GI50 was 2.45 µM (inactive) in the test on MDA-N; 20 µM (inactive) in the test with Malme-3M; 22.8 µM (inactive) in the test with NCI-H226; 22.6 µM (inactive) in the test on NCI-H522; 4.88 µM (inactive) with NCI/ADR-RES; > 77.1 µM (inactive) with OVCAR-5. The results for the GI50 with SF-539 and in the test with SN12C were 4.81 µM (inactive) and 28.2 µM (inactive), respectively.
In the case of `O=C(Cc1ccc(Cl)cc1)Nc1ccc2oc(-c3ccccc3)nc2c1`, the GI50 in the test with A498 was > 100 µM (inactive); in the test with ACHN it was > 100 µM (inactive); in the test on COLO 205 it was > 100 µM (inactive); in the test on DU-145, > 100 µM (inactive); with HCC 2998, > 100 µM (inactive); in the test with HOP-62, 35.6 µM (inactive). Also, the GI50 with HT-29, with Hs-578T, with KM12, in the test with M14, in the test with MCF7 and with MDA-MB-231 was > 100 µM (inactive) in each case. The GI50 is > 100 µM (inactive) with MDA-N; > 100 µM (inactive) in the test with Malme-3M; 27.6 µM (inactive) in the test with NCI-H226; > 100 µM (inactive) in the test on NCI-H522; 57.8 µM (inactive) in the test with NCI/ADR-RES; > 100 µM (inactive) with OVCAR-5. For the same compound, the GI50 in the test on SF-539 is 35.2 µM (inactive); with SN12C, 84.9 µM (inactive).
Take `O=[N+]([O-])c1ccc2c(Nc3ccccc3-c3ccccc3Nc3c4ccccc4nc4cc([N+](=O)[O-])ccc34)c3ccccc3nc2c1`: the GI50 in the test on A498 is 9.35 µM (inactive); in the test with ACHN, 3.17 µM (inactive); in the test on COLO 205 it was 2.74 µM (inactive); in the test with DU-145, 6.89 µM (inactive); in the test on HCC 2998 it was 3.98 µM (inactive); in the test with HOP-62 it was 9.33 µM (inactive). Also, the GI50 with HT-29 is 4.14 µM (inactive); with Hs-578T, 2.47 µM (inactive); in the test on KM12 it was 2.86 µM (inactive); in the test with M14, 2.92 µM (inactive); in the test on MCF7, 4.18 µM (inactive); with MDA-MB-231, 2.31 µM (inactive). Further, the GI50 in the test on MDA-N is 1.17 µM (inactive); in the test on Malme-3M, 8.63 µM (inactive); with NCI-H226, 4.11 µM (inactive); in the test on NCI-H522, 3.87 µM (inactive); with NCI/ADR-RES, 7.41 µM (inactive); with OVCAR-5 it was 25.9 µM (inactive). The figures for the GI50 with SF-539 and in the test with SN12C were 4.59 µM (inactive) and 2.54 µM (inactive), respectively.
As to `CCc1cc2c(cc1C(=O)CCC(=O)O)CC1(C2)Cc2cc(CC)c(C(=O)CCC(=O)O)cc2C1`, the GI50 with A498, with ACHN, in the test on COLO 205, with DU-145, with HCC 2998 and in the test with HOP-62 was > 100 µM (inactive) in each case. Further, the GI50 with HT-29, in the test with Hs-578T, in the test on KM12, with M14, with MCF7 and in the test with MDA-MB-231 was > 100 µM (inactive) each time. For the same compound, the GI50 was > 100 µM (inactive) in the test with MDA-N; 38.5 µM (inactive) with Malme-3M; > 100 µM (inactive) with NCI-H226; > 100 µM (inactive) in the test with NCI-H522; > 100 µM (inactive) in the test on NCI/ADR-RES; > 100 µM (inactive) with OVCAR-5. Moreover, the GI50 with SF-539 and in the test on SN12C was > 100 µM (inactive) each time.
On to `COc1ccc2nc3cccc([N+](=O)[O-])c3c(NCCN(C)C)c2c1`, for which the GI50 in the test on A498 was 0.17 µM (active); in the test with ACHN, 0.0585 µM (active); in the test on COLO 205 it was 0.0284 µM (active); in the test with DU-145, 0.0223 µM (active); in the test with HCC 2998, 0.0605 µM (active); with HOP-62 it was 0.119 µM (active). The GI50 was 0.0573 µM (active) in the test with HT-29; 0.242 µM (active) in the test on Hs-578T; 0.158 µM (active) in the test with KM12; 0.0927 µM (active) in the test on M14; 0.0555 µM (active) in the test with MCF7; 0.156 µM (active) with MDA-MB-231. In addition, the GI50 with MDA-N is 0.124 µM (active); in the test with Malme-3M it was 0.0877 µM (active); with NCI-H226, 0.207 µM (active); in the test on NCI-H522, 0.0209 µM (active); in the test on NCI/ADR-RES it was 0.138 µM (active); in the test with OVCAR-5, 0.173 µM (active). Further, the GI50 is 0.147 µM (active) in the test on SF-539 and 0.11 µM (active) in the test on SN12C.
Consider `C=CCOC(=O)/C(=C\c1ccc(OC)c(OC)c1)c1ccc(OC)c(OC)c1`, for which the GI50 is 78.7 µM (inactive) in the test on A498; 56.2 µM (inactive) with ACHN; 27.5 µM (inactive) in the test on COLO 205; > 100 µM (inactive) in the test on DU-145; > 100 µM (inactive) in the test with HCC 2998; > 100 µM (inactive) in the test with HOP-62. Moreover, the GI50 with HT-29 is 28.1 µM (inactive); with Hs-578T, 39.1 µM (inactive); in the test on KM12, 42.4 µM (inactive); in the test with M14, > 100 µM (inactive); with MCF7, 47.2 µM (inactive); in the test on MDA-MB-231, > 100 µM (inactive). For the same compound, the GI50 in the test with MDA-N is 60.7 µM (inactive); with Malme-3M, 91.6 µM (inactive); with NCI-H226 it was > 100 µM (inactive); in the test on NCI-H522, > 100 µM (inactive); in the test on NCI/ADR-RES it was 40.6 µM (inactive); with OVCAR-5 it was > 100 µM (inactive). The GI50 with SF-539 and in the test on SN12C was > 100 µM (inactive) throughout.
